From patent EP4227307A1 (Genzyme Corporation, priority 2022, dated 2023)
pIC50: −log10 of the molar value. Counter-ions that a name gives are not always drawn.

What follows are compounds tested against T1, human recombinant 6His-Nterm SHP2 full-length (Thr2-Arg593) (Homo sapiens, UniProt Q06124) (assay: SHP2 Phosphatase Assay (DiFMUP fluorescence)). Details: SHP2 0.2 nM pre-incubated with 100 nM bi-phosphorylated activating peptide; compound 1000-0.05 nM, 30 min pre-incubation; DiFMUP 20 µM, 45 min, room temperature; 10-concentration dose-response.
T1 construct: 6His-Nterm SHP2 full-length (Thr2-Arg593, R&D system); 6His (N); purchased R&D system
T1 sequence (Q06124 2-593): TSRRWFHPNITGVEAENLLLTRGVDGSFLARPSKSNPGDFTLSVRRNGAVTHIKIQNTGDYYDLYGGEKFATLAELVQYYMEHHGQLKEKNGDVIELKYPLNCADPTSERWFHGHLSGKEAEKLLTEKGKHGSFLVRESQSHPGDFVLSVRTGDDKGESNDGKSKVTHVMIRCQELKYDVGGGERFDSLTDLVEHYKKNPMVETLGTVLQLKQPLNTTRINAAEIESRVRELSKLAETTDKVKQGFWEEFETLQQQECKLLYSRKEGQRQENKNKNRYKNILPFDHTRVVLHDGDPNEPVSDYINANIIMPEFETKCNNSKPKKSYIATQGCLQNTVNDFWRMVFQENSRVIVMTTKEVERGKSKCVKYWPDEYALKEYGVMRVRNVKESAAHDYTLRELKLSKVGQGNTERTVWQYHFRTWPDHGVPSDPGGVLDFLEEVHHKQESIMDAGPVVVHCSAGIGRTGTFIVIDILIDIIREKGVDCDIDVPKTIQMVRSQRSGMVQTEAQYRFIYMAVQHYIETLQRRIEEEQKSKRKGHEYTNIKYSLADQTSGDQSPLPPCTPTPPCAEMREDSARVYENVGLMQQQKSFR
Type: biochemical
Summary of the method: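 SHP2 (0.2 nM) preactivated ≥10 min with 100 nM bis-phosphorylated peptide, then 30 min with compound (10 concentrations, 1000–0.05 nM) at room temperature, pH 7.2 HEPES buffer with DTT. DiFMUP (20 µM, added solution) reacted 45 min, pervanadate-stopped; fluorescence 350/450 nm. IC50 by 4-parameter logistic fit.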

| Structure (SMILES) | pIC50 |
| --- | --- |
| Cc1nc(N2CCC3(CC2)Cc2c(F)cccc2[C@H]3N)c2ccnn2c1-c1cnc(C)n1C [Compound 97, (1S)-1'-[7-(2,3-dimethylimidazol-4-yl)-6-methyl-pyrazolo[1,5-a]pyrazin-4-yl]-4-fluoro-spiro[indane-2,4'-piperidine]-1-amine hydrochloride] | 7.38 |
| N[C@@H]1c2cccnc2CC12CCN(c1ncc(-c3ccc(F)c4cc[nH]c34)n3nccc13)CC2 [Compound 89, (5S)-1'-[7-(4-fluoro-1H-indol-7-yl)pyrazolo[1,5-a]pyrazin-4-yl]spiro[5,7-dihydrocyclopenta[b]pyridine-6,4'-piperidine] -5-amine hydrochloride] | 8.05 |
| Cc1nc(N2CCC3(CC2)Cc2cccnc2[C@H]3N)c2ccnn2c1-c1cccc(F)c1Cl [Compound 12, (7S)-1'-[7-(2-chloro-3-fluorophenyl)-6-methyl-pyrazolo[1,5-a]pyrazin-4-yl]spiro[5,7-dihydrocyclopenta[b]pyridine-6,4'-piperidine]-7-amine] | 7.85 |
| Cc1nc(N2CCC3(CC2)Cc2ncc(C(F)F)cc2[C@H]3N)c2ccnn2c1-c1cnn(C)c1C [Compound 55, (5S)-3-(difluoromethyl)-1'-[7-(1,5-dimethylpyrazol-4-yl)-6-methyl-pyrazolo[1,5-a]pyrazin-4-yl]spiro [5,7-dihydrocyclopenta[b]pyridine-6,4'-piperidine]-5-amine] | 7.52 |
| Cc1nc(N2CCC3(CC2)Cc2ncccc2[C@H]3N)c2ccnn2c1-c1ccnc(C(F)(F)F)c1 [Compound 49, (5S)-1'-[6-methyl-7-[2-(trifluoromethyl)-4-pyridyl]pyrazolo[1,5-a]pyrazin-4-yl]spiro[5,7-dihydrocyclopenta[b]pyridine-6,4'-piperidine]-5-amine] | 6.89 |
| Cc1ccc2c(n1)CC1(CCN(c3nc(C)c(-c4ccccc4)n4nccc34)CC1)[C@@H]2N [Compound 107, (5 S)-2-methyl-1'-(6-methyl-7-phenyl-pyrazolo[1,5-a]pyrazin-4-yl)spiro[5,7-dihydrocyclopenta[b]pyridine-6,4'-piperidine]-5-amine hydrochloride] | 7.92 |
| N[C@@H]1c2cccnc2CC12CCN(c1ncc(-c3cnn4ccccc34)n3nccc13)CC2 [Compound 90, (5S)-1'-(7-pyrazolo[1,5-a]pyridin-3-ylpyrazolo[1,5-a]pyrazin-4-yl)spiro [5,7-dihydrocyclopenta[b]pyridine-6,4'-piperidine] -5-amine hydrochloride] | 7.89 |
| Cc1nc(N2CCC3(CC2)Cc2ncccc2[C@H]3N)c2ccnn2c1-c1ccncc1F [Compound 71, (5S)-1'-[7-(3-fluoro-4-pyridyl)-6-methyl-pyrazolo[1,5-a]pyrazin-4-yl]spiro[5,7-dihydrocyclopenta[b]pyridine-6,4'-piperidine]-5-amine hydrochloride] | 7.52 |
| COc1cnc2c(c1)[C@@H](N)C1(CCN(c3nc(C)c(-c4ccnc(C)c4Cl)n4nccc34)CC1)C2 [Compound 23, (5S)-1'-[7-(3-chloro-2-methyl-4-pyridyl)-6-methyl-pyrazolo[1,5-a]pyrazin-4-yl]-3-methoxy-spiro[5,7-dihydrocyclopenta[b]pyridine-6,4'-piperidine]-5-amine] | 8.00 |
| Cc1nc(N2CCC3(CC2)Cc2ncsc2[C@H]3N)c2ccnn2c1-c1ccccc1 [Compound 74, (6S)-1'-(6-methyl-7-phenyl-pyrazolo [1,5-a]pyrazin-4-yl)spiro[4,6-dihydrocyclopenta[d]thiazole-5,4'-piperidine] -6-amine hydrochloride] | 8.30 |
| Cc1nc2c(s1)[C@@H](N)C1(CCN(c3nc(C)c(-c4ccc5nccnc5c4Cl)n4nccc34)CC1)C2 [Compound 81, (6S)-1'-[7-(5-chloroquinoxalin-6-yl)-6-methyl-pyrazolo[1,5-a]pyrazin-4-yl]-2-methyl-spiro [4,6-dihydrocyclopenta[d]thiazole-5,4'-piperidine]-6-amine hydrochloride] | 8.40 |
| Cc1nc(N2CCC3(CC2)Cc2ncccc2[C@H]3N)c2ccnn2c1-c1ccnn1C [Compound 29, (5S)-1'-[6-methyl-7-(2-methylpyrazol-3-yl)pyrazolo[1,5-a]pyrazin-4-yl]spiro[5,7-dihydrocyclopenta[b]pyridine-6,4'-piperidine]-5-amine hydrochloride] | 7.42 |
| Cc1nc(N2CCC3(CC2)Cc2nc(O)ccc2[C@H]3N)c2ccnn2c1-c1cccc(F)c1F [Compound 222, (5S)-5-amino-1'-[7-(2,3-difluorophenyl)-6-methyl-pyrazolo[1,5-a]pyrazin-4-yl]spiro[5,7-dihydrocyclopenta[b]pyridine-6,4'-piperidine]-2-ol hydrochloride] | 9.00 |
| Cc1nc(N2CCC3(CC2)Cc2ncccc2[C@H]3N)c2ccnn2c1-c1ccc2nccnc2c1Cl [Compound 77, (5S)-1'-[7-(5-chloroquinoxalin-6-yl)-6-methyl-pyrazolo[1,5-a]pyrazin-4-yl]spiro[5,7-dihydrocyclopenta[b]pyridine-6,4'-piperidine]-5-amine] | 8.40 |

The remaining lines, values ahead:

| pIC50 | Structure (SMILES) |
| --- | --- |
| 7.96 | Cc1nc(N2CCC3(CC2)Cc2c(F)cccc2[C@H]3N)c2ccnn2c1-c1cnn2ccccc12 [Compound 96, (1S)-4-fluoro-1'-(6-methyl-7-pyrazolo[1,5-a]pyridin-3-yl-pyrazolo[1,5-a]pyrazin-4-yl)spiro[indane-2,4'-piperidine]-1-amine formate] |
| 8.10 | Cc1nccc(-c2c(C)nc(N3CCC4(CC3)Cc3c(F)cccc3[C@H]4N)c3ccnn23)c1Cl [Compound 92, (1S)-1'-[7-(3-chloro-2-methyl-4-pyridyl)-6-methyl-pyrazolo[1,5-a]pyrazin-4-yl]-4-fluoro-spiro[indane-2,4'-piperidine]-1-amine formate] |
| 7.66 | COc1ccc2c(n1)[C@@H](N)C1(CCN(c3nc(C)c(-c4cccc(F)c4F)n4nccc34)CC1)C2 [Compound 213, (7S)-1'-[7-(2,3-difluorophenyl)-6-methyl-pyrazolo[1,5-a]pyrazin-4-yl]-2-methoxy-spiro[5,7-dihydrocyclopenta[b]pyridine-6,4'-piperidine]-7-amine] |
| < 6.00 | Cc1nc(N2CCC3(CC2)Cc2ncccc2[C@H]3N)c2ccnn2c1-c1cccn(C)c1=O [Compound 227, 3-[4-[(5S)-5-aminospiro[5,7-dihydrocyclopenta[b]pyridine-6,4'-piperidine]-1'-yl]-6-methyl-pyrazolo[1,5-a]pyrazin-7-yl]-1-methyl-pyridin-2-one] |
| 7.51 | Cc1nc(N2CCC3(CC2)Cc2ncccc2[C@H]3N)c2ccnn2c1-c1ccc(C#N)s1 [Compound 190, 5-[6-methyl-4-[(5S)-5-aminospiro[5,7-dihydrocyclopenta[b]pyridine-6,4'-piperidine]-1'-yl]pyrazolo[1,5-a]pyrazin-7-yl]thiophene-2-carbonitrile] |
| 7.64 | Cc1nc(N2CCC3(CC2)Cc2ncccc2[C@H]3N)c2ccnn2c1-c1cccc2c1ccn2C [Compound 182, (5S)-1'-[6-methyl-7-(1-methylindol-4-yl)pyrazolo[1,5-a]pyrazin-4-yl]spiro[5,7-dihydrocyclopenta[b]pyridine-6,4'-piperidine]-5-amine] |
| < 6.00 | Cc1nc(N2CCC3(CC2)Cc2ncccc2[C@H]3N)c2ccnn2c1C1CC1 [Compound 210, (5S)-1'-(7-cyclopropyl-6-methyl-pyrazolo[1,5-a]pyrazin-4-yl)spiro[5,7-dihydrocyctopenta[b]pyridine-6,4'-piperidine]-5-amine] |
